Test results published in PMC6746701, “A phyB-PIF1-SPA1 kinase regulatory complex promotes photomorphogenesis in Arabidopsis” (Nature Communications, 2019).

How the values were obtained:
SPA1-Kin = target: T1, SPA1-Kin (Arabidopsis thaliana, UniProt Q9SYX2); assay: in vitro autophosphorylation assay, autoradiogram; type: biochemical; settings: 10 mM MgCl2, pH 7.5, 28 °C; labelled compound (gamma-32P)
T1 sequence (Q9SYX2 1-545 limits assumed): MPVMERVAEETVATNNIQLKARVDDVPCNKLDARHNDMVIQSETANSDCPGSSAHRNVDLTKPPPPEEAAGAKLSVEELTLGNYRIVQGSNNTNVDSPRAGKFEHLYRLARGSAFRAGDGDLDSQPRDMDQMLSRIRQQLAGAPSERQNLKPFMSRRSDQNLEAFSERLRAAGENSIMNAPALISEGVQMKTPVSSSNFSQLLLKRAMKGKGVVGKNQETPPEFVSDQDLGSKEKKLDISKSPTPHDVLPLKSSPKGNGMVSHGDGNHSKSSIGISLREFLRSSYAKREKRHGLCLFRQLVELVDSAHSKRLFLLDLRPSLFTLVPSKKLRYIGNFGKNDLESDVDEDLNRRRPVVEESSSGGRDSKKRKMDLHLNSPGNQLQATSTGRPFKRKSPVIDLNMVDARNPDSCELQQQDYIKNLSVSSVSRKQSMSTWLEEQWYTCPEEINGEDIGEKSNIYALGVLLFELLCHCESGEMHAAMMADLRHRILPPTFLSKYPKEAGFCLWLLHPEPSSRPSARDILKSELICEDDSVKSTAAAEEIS

phyA = target: T2, phyA (Arabidopsis thaliana, UniProt P14712); assay: in vitro kinase assay, autoradiogram; type: biochemical; settings: PIF1 as co-substrate, 10 mM MgCl2, pH 7.5, 28 °C; labelled compound (gamma-32P)
T2 construct: holoprotein purified from Saccharomyces cerevisiae
T2 sequence (P14712 1-1122): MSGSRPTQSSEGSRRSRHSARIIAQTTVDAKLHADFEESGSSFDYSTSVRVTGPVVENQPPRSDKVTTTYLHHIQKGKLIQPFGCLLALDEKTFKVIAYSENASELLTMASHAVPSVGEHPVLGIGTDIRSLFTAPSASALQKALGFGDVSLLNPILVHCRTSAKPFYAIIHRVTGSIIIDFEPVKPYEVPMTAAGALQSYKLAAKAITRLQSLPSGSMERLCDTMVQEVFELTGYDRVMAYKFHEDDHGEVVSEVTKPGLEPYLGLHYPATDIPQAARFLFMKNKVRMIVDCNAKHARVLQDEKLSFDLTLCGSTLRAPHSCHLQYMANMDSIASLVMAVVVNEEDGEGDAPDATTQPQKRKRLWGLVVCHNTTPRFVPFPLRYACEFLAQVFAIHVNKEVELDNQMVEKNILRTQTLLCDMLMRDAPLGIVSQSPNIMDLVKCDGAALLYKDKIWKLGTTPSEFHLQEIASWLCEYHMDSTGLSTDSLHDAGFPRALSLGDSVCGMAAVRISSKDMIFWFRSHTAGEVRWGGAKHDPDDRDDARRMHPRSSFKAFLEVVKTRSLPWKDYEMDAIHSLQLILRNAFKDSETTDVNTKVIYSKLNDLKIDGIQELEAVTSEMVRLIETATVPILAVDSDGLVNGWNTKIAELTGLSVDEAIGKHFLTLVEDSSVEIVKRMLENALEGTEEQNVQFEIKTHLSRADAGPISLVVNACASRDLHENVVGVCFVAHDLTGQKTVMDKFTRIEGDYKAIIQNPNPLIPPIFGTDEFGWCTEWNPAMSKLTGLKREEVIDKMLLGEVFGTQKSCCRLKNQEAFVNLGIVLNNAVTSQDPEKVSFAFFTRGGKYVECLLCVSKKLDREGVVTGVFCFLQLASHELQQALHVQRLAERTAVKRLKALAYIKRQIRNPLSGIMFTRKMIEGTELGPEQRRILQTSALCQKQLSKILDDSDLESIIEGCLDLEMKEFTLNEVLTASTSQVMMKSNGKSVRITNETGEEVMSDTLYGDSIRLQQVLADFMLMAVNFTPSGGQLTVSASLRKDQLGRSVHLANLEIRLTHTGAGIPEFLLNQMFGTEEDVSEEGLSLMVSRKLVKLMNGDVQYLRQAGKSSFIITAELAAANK

## Nc1ncnc2c1ncn2[C@@H]1O[C@H](COP(=O)(O)OP(=O)(O)OP(=O)(O)O)[C@@H](O)[C@H]1O [ATP]
SPA1-Kin
  in vitro autophosphorylation assay, autoradiogram: The purified SPA1-Kin domain displayed autophosphorylation activity in a protein concentration-dependent manner
phyA
  in vitro kinase assay, autoradiogram: In this assay, both phyA and phyB phosphorylated PIF1 in vitro
